Earlier results in EP2391353B1, “PHARMACEUTICAL COMPOSITIONS OF TRIMETAZIDINE” (Lupin Limited, priority 2009, dated 2010).

Conditions: administered orally

For COc1ccc(CN2CCNCC2)c(OC)c1OC.Cl.Cl [Trimetazidine dihydrochloride, 1-(2,3,4-trimethoxybenzyl)-piperazine dihydrochloride], the Tmax is given as “around 1.8 ± 0.7 hours” and the plasma half-life is given as “around 6.0 ± 1.4 hours”.
